System: patients with relapsed/refractory immune thrombocytopenia
Assay: Phase 1/2 study (NCT03395210) Part A, safety;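 also: adverse events graded by NCI CTCAE version 4.0, with worsening of pre-existing conditions counted as adverse events, analysed in the Safety Population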
[1] = patients who initiated at all doses

## CC(C)(C=C(C#N)C(=O)N1CCC[C@@H](n2nc(-c3ccc(Oc4ccccc4)cc3F)c3c(N)ncnc32)C1)N1CCN(C2COC2)CC1 [rilzabrutinib, (R)-2-[3-[4-amino-3-(2-fluoro-4-phenoxy-phenyl)pyrazolo[3,4-d]pyrimidin-1-yl]piperidine-1-carbonyl]-4-methyl-4-[4-(oxetan-3-yl)piperazin-1-yl]pent-2-enenitrile]
Safety Population, N = 60
  Fatigue, TEAEs Due to Any Cause, Grade 2: 2 (3) number of patients (percent)
  Fatigue, Treatment-Related TEAEs, Any grade: 6 (10) number of patients (percent)
  Fatigue, Treatment-Related TEAEs, Grade 1: 5 (8) number of patients (percent)
  Fatigue, Treatment-Related TEAEs, Grade 2: 1 (2) number of patients (percent)
  Frequent bowel movements, TEAEs Due to Any Cause, Any grade: 1 (2) number of patients (percent)
  Frequent bowel movements, TEAEs Due to Any Cause, Grade 2: 1 (2) number of patients (percent)
  Frequent bowel movements, Treatment-Related TEAEs, Any grade: 1 (2) number of patients (percent)
  Frequent bowel movements, Treatment-Related TEAEs, Grade 2: 1 (2) number of patients (percent)
  Gingival bleeding, TEAEs Due to Any Cause, Any grade: 3 (5) number of patients (percent)
  Gingival bleeding, TEAEs Due to Any Cause, Grade 1: 3 (5) number of patients (percent)
  Headache, TEAEs Due to Any Cause, Any grade: 7 (12) number of patients (percent)
  Headache, TEAEs Due to Any Cause, Grade 1: 7 (12) number of patients (percent)
  Headache, Treatment-Related TEAEs, Any grade: 2 (3) number of patients (percent)
  Headache, Treatment-Related TEAEs, Grade 1: 2 (3) number of patients (percent)
  Heavy menstrual bleeding, TEAEs Due to Any Cause, Any grade: 2 (3) number of patients (percent)
  Heavy menstrual bleeding, TEAEs Due to Any Cause, Grade 1: 1 (2) number of patients (percent)
  Heavy menstrual bleeding, TEAEs Due to Any Cause, Grade 2: 1 (2) number of patients (percent)
  Hot flush, TEAEs Due to Any Cause, Any grade: 1 (2) number of patients (percent)
  Hot flush, TEAEs Due to Any Cause, Grade 2: 1 (2) number of patients (percent)
  Hot flush, Treatment-Related TEAEs, Any grade: 1 (2) number of patients (percent)
  Hot flush, Treatment-Related TEAEs, Grade 2: 1 (2) number of patients (percent)
  Hypoesthesia, TEAEs Due to Any Cause, Any grade: 1 (2) number of patients (percent)
  Hypoesthesia, TEAEs Due to Any Cause, Grade 2: 1 (2) number of patients (percent)
  Hypoesthesia, Treatment-Related TEAEs, Any grade: 1 (2) number of patients (percent)
  Hypoesthesia, Treatment-Related TEAEs, Grade 2: 1 (2) number of patients (percent)
  Hypokalemia, TEAEs Due to Any Cause, Any grade: 1 (2) number of patients (percent)
  Hypokalemia, TEAEs Due to Any Cause, Grade 1: 1 (2) number of patients (percent)
  Hypokalemia, Treatment-Related TEAEs, Any grade: 1 (2) number of patients (percent)
  Hypokalemia, Treatment-Related TEAEs, Grade 1: 1 (2) number of patients (percent)
  Hypophosphatemia, TEAEs Due to Any Cause, Any grade: 2 (3) number of patients (percent)
  Hypophosphatemia, TEAEs Due to Any Cause, Grade 2: 2 (3) number of patients (percent)
  Increased white blood cell count, TEAEs Due to Any Cause, Any grade: 1 (2) number of patients (percent)
  Increased white blood cell count, TEAEs Due to Any Cause, Grade 2: 1 (2) number of patients (percent)
  Increased white blood cell count, Treatment-Related TEAEs, Any grade: 1 (2) number of patients (percent)
  Increased white blood cell count, Treatment-Related TEAEs, Grade 2: 1 (2) number of patients (percent)
  Maculo-papular rash, TEAEs Due to Any Cause, Any grade: 1 (2) number of patients (percent)
  Maculo-papular rash, TEAEs Due to Any Cause, Grade 1: 1 (2) number of patients (percent)
  Maculo-papular rash, Treatment-Related TEAEs, Any grade: 1 (2) number of patients (percent)
  Maculo-papular rash, Treatment-Related TEAEs, Grade 1: 1 (2) number of patients (percent)
  Malaise, TEAEs Due to Any Cause, Any grade: 1 (2) number of patients (percent)
  Malaise, TEAEs Due to Any Cause, Grade 1: 1 (2) number of patients (percent)
  Malaise, Treatment-Related TEAEs, Any grade: 1 (2) number of patients (percent)
  Malaise, Treatment-Related TEAEs, Grade 1: 1 (2) number of patients (percent)
  Micturition urgency, TEAEs Due to Any Cause, Any grade: 1 (2) number of patients (percent)
  Micturition urgency, TEAEs Due to Any Cause, Grade 1: 1 (2) number of patients (percent)
  Micturition urgency, Treatment-Related TEAEs, Any grade: 1 (2) number of patients (percent)
  Micturition urgency, Treatment-Related TEAEs, Grade 1: 1 (2) number of patients (percent)
  Muscle spasms, TEAEs Due to Any Cause, Any grade: 2 (3) number of patients (percent)
  Muscle spasms, TEAEs Due to Any Cause, Grade 1: 2 (3) number of patients (percent)
  Muscle spasms, Treatment-Related TEAEs, Any grade: 1 (2) number of patients (percent)
  Muscle spasms, Treatment-Related TEAEs, Grade 1: 1 (2) number of patients (percent)
  Myalgia, TEAEs Due to Any Cause, Any grade: 1 (2) number of patients (percent)
  Myalgia, TEAEs Due to Any Cause, Grade 1: 1 (2) number of patients (percent)
  Myalgia, Treatment-Related TEAEs, Any grade: 1 (2) number of patients (percent)
  Myalgia, Treatment-Related TEAEs, Grade 1: 1 (2) number of patients (percent)
  Nasal congestion, TEAEs Due to Any Cause, Any grade: 2 (3) number of patients (percent)
  Nasal congestion, TEAEs Due to Any Cause, Grade 1: 1 (2) number of patients (percent)
  Nasal congestion, TEAEs Due to Any Cause, Grade 2: 1 (2) number of patients (percent)
  Nasopharyngitis, TEAEs Due to Any Cause, Any grade: 3 (5) number of patients (percent)
  Nasopharyngitis, TEAEs Due to Any Cause, Grade 1: 2 (3) number of patients (percent)
  Nasopharyngitis, TEAEs Due to Any Cause, Grade 2: 1 (2) number of patients (percent)
  Nausea, TEAEs Due to Any Cause, Any grade: 21 (35) number of patients (percent)
  Nausea, TEAEs Due to Any Cause, Grade 1: 18 (30) number of patients (percent)
  Nausea, TEAEs Due to Any Cause, Grade 2: 3 (5) number of patients (percent)
  Nausea, Treatment-Related TEAEs, Any grade: 18 (30) number of patients (percent)
  Nausea, Treatment-Related TEAEs, Grade 1: 16 (27) number of patients (percent)
  Nausea, Treatment-Related TEAEs, Grade 2: 2 (3) number of patients (percent)
  Peripheral swelling, TEAEs Due to Any Cause, Any grade: 3 (5) number of patients (percent)
  Peripheral swelling, TEAEs Due to Any Cause, Grade 1: 3 (5) number of patients (percent)
  Petechiae, TEAEs Due to Any Cause, Any grade: 4 (7) number of patients (percent)
  Petechiae, TEAEs Due to Any Cause, Grade 1: 4 (7) number of patients (percent)
  Pruritus, TEAEs Due to Any Cause, Any grade: 2 (3) number of patients (percent)
  Pruritus, TEAEs Due to Any Cause, Grade 1: 1 (2) number of patients (percent)
  Pruritus, TEAEs Due to Any Cause, Grade 2: 1 (2) number of patients (percent)
  Pruritus, Treatment-Related TEAEs, Any grade: 2 (3) number of patients (percent)
  Pruritus, Treatment-Related TEAEs, Grade 1: 1 (2) number of patients (percent)
  Pruritus, Treatment-Related TEAEs, Grade 2: 1 (2) number of patients (percent)
  Purpura, TEAEs Due to Any Cause, Any grade: 2 (3) number of patients (percent)
  Purpura, TEAEs Due to Any Cause, Grade 1: 2 (3) number of patients (percent)
  Rash, TEAEs Due to Any Cause, Any grade: 3 (5) number of patients (percent)
  Rash, TEAEs Due to Any Cause, Grade 1: 1 (2) number of patients (percent)
  Rash, TEAEs Due to Any Cause, Grade 2: 2 (3) number of patients (percent)
  Rash, Treatment-Related TEAEs, Any grade: 1 (2) number of patients (percent)
  Rash, Treatment-Related TEAEs, Grade 1: 1 (2) number of patients (percent)
  Thrombocytopenia, TEAEs Due to Any Cause, Any grade: 2 (3) number of patients (percent)
  Thrombocytopenia, TEAEs Due to Any Cause, Grade 3/4: 2 (3) number of patients (percent)
  Upper abdominal pain, TEAEs Due to Any Cause, Any grade: 3 (5) number of patients (percent)
  Upper abdominal pain, TEAEs Due to Any Cause, Grade 1: 2 (3) number of patients (percent)
  Upper abdominal pain, TEAEs Due to Any Cause, Grade 2: 1 (2) number of patients (percent)
  Upper abdominal pain, Treatment-Related TEAEs, Any grade: 2 (3) number of patients (percent)
  Upper abdominal pain, Treatment-Related TEAEs, Grade 1: 1 (2) number of patients (percent)
  Upper abdominal pain, Treatment-Related TEAEs, Grade 2: 1 (2) number of patients (percent)
  Upper respiratory tract infection, TEAEs Due to Any Cause, Any grade: 3 (5) number of patients (percent)
  Upper respiratory tract infection, TEAEs Due to Any Cause, Grade 1: 2 (3) number of patients (percent)
  Upper respiratory tract infection, TEAEs Due to Any Cause, Grade 2: 1 (2) number of patients (percent)
  Urinary tract infection, TEAEs Due to Any Cause, Any grade: 2 (3) number of patients (percent)
  Urinary tract infection, TEAEs Due to Any Cause, Grade 1: 1 (2) number of patients (percent)
  Urinary tract infection, TEAEs Due to Any Cause, Grade 2: 1 (2) number of patients (percent)
  Vomiting, TEAEs Due to Any Cause, Any grade: 4 (7) number of patients (percent)
  Vomiting, TEAEs Due to Any Cause, Grade 1: 3 (5) number of patients (percent)
  Vomiting, TEAEs Due to Any Cause, Grade 2: 1 (2) number of patients (percent)
  Vomiting, Treatment-Related TEAEs, Any grade: 3 (5) number of patients (percent)
  Vomiting, Treatment-Related TEAEs, Grade 1: 2 (3) number of patients (percent)
  Vomiting, Treatment-Related TEAEs, Grade 2: 1 (2) number of patients (percent)
In vivo
  TEAE resulting in study drug discontinuation: administrative and site conditions: 1 (2%) patients (%)
  TEAE resulting in study drug discontinuation: gastrointestinal (GI) disorders: 4 (7%) patients (%)
  TEAE resulting in study drug discontinuation: lymphatic system disorders: 2 (4%) patients (%)
[1]
  treatment-related any-grade TEAE: diarrhea: 32%
  treatment-related any-grade TEAE: fatigue: 10%
  treatment-related any-grade TEAE: nausea: 30%
Unrelated to treatment, 400 mg bid discontinued on day 8, pre-existing Evans syndrome
  patient death: 1 patient

From patent US20250255874A1, “Methods for Treating Immune Thrombocytopenia By Administering (R)-2-[3-[4-Amino-3-(2-Fluoro-4-Phenoxy-Phenyl)Pyrazolo[3,4-D]Pyrimidin-1-YL]Piperidine-1-Carbonyl]-4-Methyl-4-[4-(Oxetan-3-YL)Piperazin-1-YL]Pent-2-Enentrile” (Principia Biopharma Inc., priority 2022, published 2025)
